# System: interleukin-1β production
# Assay: Inhibitory activity against interleukin-1β production (LPS-stimulated HL-60 cells, ELISA)
# Format: cell-based
# Settings: Homo sapiens, 72 h, lipopolysaccharide 10 μg/ml, culturing for 3 days, interleukin-1β determined by ELISA, read-out: IL-β (IC50 μM)
# Description: Experiment 1 (Inhibitory Activity against Interleukin-1β Production)
# Inhibitory activity of the compounds of the present invention, which are represented by the formula (I), against interleukin-1β production was tested by the following experiment:
# HL-60 cells were cultured for 4 days until confluence on RPMI 1640 medium with 10% fetal bovine serum (FBS) added thereto. The medium was centrifuged. The supernatant was discarded, and the cells were then suspended at 1×10^6 cells/ml on RPMI 1640 medium with 3% FBS, and lipopolysaccharide was added to give a final concentration of 10 μg/ml . The culture was inoculated at 1 ml/well to a 24-well plate. A test compound was added at 1 μl/well, followed by culturing for 3 days. Three days later, the amount of interleukin-1β in each culture was determined by ELISA. Each IC50 value was determined by a comparison in yield with a control to which no test compound was added.
row,Structure (SMILES),IC50 [µM]
1,"COc1ccc(-c2nnc(C#N)cc2-c2ccccc2)cc1 [Example 66, 6-cyano-3-(4-methoxyphenyl)-4-phenylpyridazine]",0.68
2,"COc1ccc(-c2cc(Oc3ccccc3C#N)nnc2-c2ccc(OC)cc2)cc1 [Example 18, 3,4-bis(4-methoxyphenyl)-6-(2-cyanophenoxy)pyridazine]",0.15
3,"COc1ccc(-c2cc(Oc3c(F)cccc3F)nnc2-c2ccc(OC)cc2)cc1 [Example 8, 3,4-bis(4-methoxyphenyl)-6-(2,6-difluorophenoxy)pyridazine]",0.35
4,"COc1ccc(-c2cc(Oc3cc(F)ccc3F)nnc2-c2ccc(OC)cc2)cc1 [Example 7, 3,4-bis(4-methoxyphenyl)-6-(2,5-difluorophenoxy)pyridazine]",0.18
5,"COc1ccc(-c2nnc(Oc3cccc(F)c3F)cc2-c2ccccc2)cc1 [Example 25, 6-(2,3-difluorophenoxy)-3-(4-methoxyphenyl)-4-phenylpyridazine]",0.32
6,"COc1ccc(-c2cc(Oc3ccccc3)nnc2-c2ccc(OC)cc2)cc1 [Example 3, 3,4-bis(4-methoxyphenyl)-6-(phenoxy)pyridazine]",0.1
7,"COc1ccc(-c2cc(Oc3c(F)c(F)c(F)c(F)c3F)nnc2-c2ccc(OC)cc2)cc1 [Example 12, 3,4-bis(4-methoxyphenyl)-6(2,3,4,5,6-pentafluorophenoxy)pyridazine]",0.04
8,"COc1ccc(-c2cc(Sc3cc(Cl)c(Cl)c(Cl)c3)nnc2-c2ccc(OC)cc2)cc1 [Example 14, 3,4-bis(4-methoxyphenyl)-6-(3,4,5-trichlorophenylthio)pyridazine]",0.2
9,"COc1ccc(-c2cc(Oc3cccc(F)c3F)nnc2-c2ccc(OC)cc2)cc1 [Example 5, 3,4-bis(4-methoxyphenyl)-6-(2,3-difluorophenoxy)pyridazine]",0.12
10,"COc1ccc(-c2cc(Oc3ccc([N+](=O)[O-])cc3)nnc2-c2ccc(OC)cc2)cc1 [Example 17, 3,4-bis(4-methoxyphenyl)-6-(4-nitrophenoxy)pyridazine]",0.63
11,"COc1ccc(-c2nnc(Oc3c(F)c(F)c(F)c(F)c3F)cc2-c2ccccc2)cc1 [Example 27, 3-(4-methoxyphenyl)-6-(2,3,4,5,6-pentafluorophenoxy)-4-phenylpyridazine]",0.01
12,"COc1ccc(-c2cc(Cl)nnc2-c2ccc(OC)cc2)cc1 [Comp. Comp'd 1, reference compound]",32.1
13,"CCOC(=O)c1c(Cl)nnc(-c2ccc(OC)cc2)c1-c1ccc(OC)cc1 [Comp. Comp'd 2, reference compound]",4.16
14,"COc1ccc(-c2cc(Oc3c(F)c(F)cc(F)c3F)nnc2-c2ccc(OC)cc2)cc1 [Example 11, 3,4-bis(4-methoxyphenyl)-6-(2,3,5,6-tetrafluorophenoxy)pyridazine]",0.19
15,"CSc1ccc(-c2nnc(Sc3ccccc3)cc2-c2ccc(Sc3ccccc3)cc2)cc1 [Example 32, 3-[4-(methylthio)phenyl]-6-phenylthio-4-[4-(phenylthio)phenyl]pyridazine]",0.94
16,"COc1ccc(-c2nnc(Oc3ccc(F)cc3F)cc2-c2ccccc2)cc1 [Example 26, 6-(2,4-difluorophenoxy)-3-(4-methoxyphenyl)-4-phenylpyridazine]",0.31
17,"COc1ccc(Oc2cc(-c3ccc(OC)cc3)c(-c3ccc(OC)cc3)nn2)cc1 [Example 15, 3,4-bis(4-methoxyphenyl)-6-(4-methoxyphenoxy)pyridazine]",0.45
18,"COc1ccc(-c2nnc(Oc3ccc(F)cc3F)cc2-c2ccncc2)cc1 [Example 23, 6-(2,4-difluorophenoxy)-3-(4-methoxyphenyl)-4-(4-pyridyl)pyridazine]",0.96
19,"COc1ccc(-c2cc(Oc3ccc(F)c(F)c3)nnc2-c2ccc(OC)cc2)cc1 [Example 9, 3,4-bis(4-methoxyphenyl)-6-(3,4-difluorophenoxy)pyridazine]",0.46
20,"COc1ccc(-c2cc(C#N)nnc2-c2ccc(OC)cc2)cc1 [Example 51, 3,4-bis-(4-methoxyphenyl)-6-cyanopyridazine]",0.09
21,"CSc1ccc(-c2nnc(Oc3ccc(F)cc3F)cc2-c2ccc(Cl)cc2)cc1 [Example 33, 4-(4-chlorophenyl)-6-(2,4-difluorophenoxy)-3-[4-(methylthio)phenyl]pyridazine]",0.26
22,"COc1ccc(-c2cc(Oc3cccc(C#N)c3)nnc2-c2ccc(OC)cc2)cc1 [Example 19, 3,4-bis(4-methoxyphenyl)-6-(3-cyanophenoxy)pyridazine]",0.16

# System: not given
# Assay: not given
# Settings: not given
row,Structure (SMILES),melting point [°C]
1,"CSc1ccc(-c2nnc(Cl)cc2-c2ccc(F)cc2)cc1 [Example 28, 6-chloro-4-(4-fluorophenyl)-3-[4-(methylthio)phenyl]pyridazine]",130.9 to 131.4
2,"CSc1ccc(-c2nnc(Cl)cc2-c2ccc(Cl)cc2)cc1 [Example 31, 6-chloro-4-(4-chlorophenyl)-3-[4-(methylthio)phenyl]pyridazine]",145 to 145.8
3,"COc1ccc(-c2cc(NCc3ccccc3)nnc2-c2ccc(OC)cc2)cc1 [Example 41, 6-benzylamino-3,4-bis(4-methoxyphenyl)pyridazine]",125.4 to 126.3
4,"COc1ccc(-c2nnc(Oc3cccc(F)c3F)cc2-c2ccccc2)cc1 [Example 25, 6-(2,3-difluorophenoxy)-3-(4-methoxyphenyl)-4-phenylpyridazine]",155.2 to 156.6
5,"CSc1ccc(-c2nnc(Cl)cc2-c2ccccc2)cc1 [Example 59, 6-chloro-3-[4-(methylthio)phenyl]-4-phenylpyridazine]",157.7 to 158.3
6,"CSc1ccc(-c2nnc(Sc3ccccc3)cc2-c2ccc(Sc3ccccc3)cc2)cc1 [Example 32, 3-[4-(methylthio)phenyl]-6-phenylthio-4-[4-(phenylthio)phenyl]pyridazine]",53.3 to 56.2
7,"COc1ccc(-c2nnc(Oc3ccc(F)cc3F)cc2-c2ccccc2)cc1 [Example 26, 6-(2,4-difluorophenoxy)-3-(4-methoxyphenyl)-4-phenylpyridazine]",169 to 169.9
8,"CSc1ccc(-c2nnc(Oc3ccc(F)cc3F)cc2-c2ccc(F)cc2)cc1 [Example 29, 6-(2,4-difluorophenoxy)-4-(4-fluorophenyl)-3-[4-(methylthio)phenyl]pyridazine]",140.6 to 143.4
9,"Cc1cc(-c2ccc(Cl)cc2)c(-c2ccc(S(C)(=O)=O)cc2)nn1 [Example 50, 4-(4-chlorophenyl)-6-methyl-3-[4-(methylsulfonyl)phenyl]pyridazine]",205 to 209
10,"CSc1ccc(-c2nnc(SC)cc2-c2ccc(F)cc2)cc1 [Example 46, 4-(4-fluorophenyl)-6-methylthio-3-[4-(methylthio)phenyl]pyridazine]",165.8 to 169.5
11,"CSc1ccc(-c2nnc(Oc3ccc(F)cc3F)cc2-c2ccc(Cl)cc2)cc1 [Example 33, 4-(4-chlorophenyl)-6-(2,4-difluorophenoxy)-3-[4-(methylthio)phenyl]pyridazine]",163.2 to 164
12,"CS(=O)(=O)c1ccc(-c2nnc(Cl)cc2-c2ccc(Cl)cc2)cc1 [Example 60, 6-chloro-4-(4-chlorophenyl)-3-[4-(methylsulfonyl)phenyl]pyridazine]",189.6 to 190.5
13,"CS(=O)(=O)c1ccc(-c2nnc(Oc3ccc(F)cc3F)cc2-c2ccc(Cl)cc2)cc1 [Example 34, 4-(4-chlorophenyl)-6-(2,4-difluorophenoxy)-3-[4-(methylsulfonyl)phenyl]pyridazine]",115.2 to 117.3
